Assay results reported in PubChem BioAssay AID1963432 (Molecular Pharmacology Branch, DTP, NCI, 2024).

Tested on: SYO-1 complex spheroid growth, percent test/control
Assay: Anticancer human tumor SYO-1 cell line growth inhibition [Asc];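 further: compound exposure lasted 7 days after spheroids grew 3 days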;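 on viability, T/C: 100% = DMSO vehicle control viability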
Details: for IC50: curve of first compound; for viability, T/C: stronger effect = lower value
Procedure, shortened: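 Tumor cells were grown as complex spheroids with human endothelial cells (HUVEC) and human mesenchymal stem cells as stroma. Agents were tested alone and in combination, in half-log steps down from the clinical Cmax, or from 10 microM where Cmax was unknown.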

Which IC50 (second compound 0.01 µM) does the source give for C=CC(=O)N1CCN(c2nc(=O)n(-c3c(C)ccnc3C(C)C)c3nc(-c4c(O)cccc4F)c(F)cc23)C(C)C1 (configuration not stated) + CNC(C)C(=O)NC1CN(S(=O)(=O)c2cccc(S(=O)(=O)N3CCC4CCC(C(=O)NC(c5ccccc5)c5ccccc5)N4C(=O)C(NC(=O)C(C)NC)C3)c2)CCC2CCC(C(=O)NC(c3ccccc3)c3ccccc3)N2C1=O here?
Its IC50 is greater than 10000 nM.

What about the IC50 (second compound 0.0316 µM) of the same compound?
The IC50 was greater than 10000 nM.

And the IC50 (second compound 0.1 µM)?
Its IC50 is greater than 10000 nM.

And the IC50 (second compound 0.316 µM)?
The IC50 was greater than 10000 nM.

What about the IC50 (second compound 1 µM) of the same compound?
Its IC50 is greater than 10000 nM.

And the viability, T/C (second compound 0.01 µM, first compound 0.0316 µM)?
Its viability, T/C is 104%.

And the viability, T/C (second compound 0.01 µM, first compound 0.1 µM)?
Its viability, T/C is 105%.

What about the viability, T/C (second compound 0.01 µM, first compound 0.316 µM) of the same compound?
The viability, T/C was 101%.

And the viability, T/C (second compound 0.01 µM, first compound 1 µM)?
The viability, T/C was 102%.

And the viability, T/C (second compound 0.01 µM, first compound 3.16 µM)?
Its viability, T/C is 90.3%.

And the viability, T/C (second compound 0.01 µM, first compound 10 µM)?
Its viability, T/C is 83.6%.

What about the viability, T/C (second compound 0.0316 µM, first compound 0.0316 µM) of the same compound?
The viability, T/C was 97.4%.

And the viability, T/C (second compound 0.0316 µM, first compound 0.1 µM)?
Its viability, T/C is 94.5%.

What about the viability, T/C (second compound 0.0316 µM, first compound 0.316 µM) of the same compound?
Its viability, T/C is 99.4%.

What about the viability, T/C (second compound 0.0316 µM, first compound 1 µM) of the same compound?
The viability, T/C was 97.2%.

What about the viability, T/C (second compound 0.0316 µM, first compound 3.16 µM) of the same compound?
The viability, T/C was 87.3%.

What about the viability, T/C (second compound 0.0316 µM, first compound 10 µM) of the same compound?
The viability, T/C was 86.2%.

And the viability, T/C (second compound 0.1 µM, first compound 0.0316 µM)?
The viability, T/C was 88.3%.

And the viability, T/C (second compound 0.1 µM, first compound 0.1 µM)?
Its viability, T/C is 94.3%.

What about the viability, T/C (second compound 0.1 µM, first compound 0.316 µM) of the same compound?
Its viability, T/C is 100%.

What about the viability, T/C (second compound 0.1 µM, first compound 1 µM) of the same compound?
Its viability, T/C is 92.5%.

And the viability, T/C (second compound 0.1 µM, first compound 3.16 µM)?
The viability, T/C was 98.1%.

What about the viability, T/C (second compound 0.1 µM, first compound 10 µM) of the same compound?
The viability, T/C was 85.4%.

And the viability, T/C (second compound 0.316 µM, first compound 0.0316 µM)?
Its viability, T/C is 96.6%.

And the viability, T/C (second compound 0.316 µM, first compound 0.1 µM)?
The viability, T/C was 98%.

What about the viability, T/C (second compound 0.316 µM, first compound 0.316 µM) of the same compound?
The viability, T/C was 97.5%.

What about the viability, T/C (second compound 0.316 µM, first compound 1 µM) of the same compound?
The viability, T/C was 93.5%.

What about the viability, T/C (second compound 0.316 µM, first compound 3.16 µM) of the same compound?
Its viability, T/C is 87.4%.

And the viability, T/C (second compound 0.316 µM, first compound 10 µM)?
Its viability, T/C is 89.6%.

What about the viability, T/C (second compound 1 µM, first compound 0.0316 µM) of the same compound?
The viability, T/C was 98.1%.

And the viability, T/C (second compound 1 µM, first compound 0.1 µM)?
Its viability, T/C is 98.1%.

And the viability, T/C (second compound 1 µM, first compound 0.316 µM)?
The viability, T/C was 93.1%.

And the viability, T/C (second compound 1 µM, first compound 1 µM)?
The viability, T/C was 95.8%.

What about the viability, T/C (second compound 1 µM, first compound 3.16 µM) of the same compound?
Its viability, T/C is 93.5%.

And the viability, T/C (second compound 1 µM, first compound 10 µM)?
Its viability, T/C is 88%.

With Cn1ncnc1[C@H]1c2n[nH]c(=O)c3cc(F)cc(c23)N[C@@H]1c1ccc(F)cc1 + CCN1C(C(=O)NC23CCC(C(=O)O)(CC2)CC3)C(c2cccc(Cl)c2F)C2(C(=O)Nc3cc(Cl)ccc32)C12CCCCC2 as the compound, how does the IC50 (second compound 0.00949 µM) read?
The IC50 was 16.8 nM.

What about the IC50 (second compound 0.03 µM) of the same compound?
The IC50 was 6.16 nM.

And the IC50 (second compound 0.0949 µM)?
The IC50 was 1.56 nM.

And the IC50 (second compound 0.3 µM)?
The IC50 was less than 0.316 nM.

And the IC50 (second compound 0.949 µM)?
The IC50 was less than 0.316 nM.

And the IC50 (second compound 3 µM)?
The IC50 was less than 0.316 nM.

What about the viability, T/C (second compound 0.00949 µM, first compound 0.000316 µM) of the same compound?
The viability, T/C was 112%.

And the viability, T/C (second compound 0.00949 µM, first compound 0.001 µM)?
Its viability, T/C is 104%.

What about the viability, T/C (second compound 0.00949 µM, first compound 0.00316 µM) of the same compound?
The viability, T/C was 96.2%.

And the viability, T/C (second compound 0.00949 µM, first compound 0.01 µM)?
The viability, T/C was 78.7%.

And the viability, T/C (second compound 0.00949 µM, first compound 0.0316 µM)?
The viability, T/C was 14.9%.

And the viability, T/C (second compound 0.00949 µM, first compound 0.1 µM)?
The viability, T/C was 7.79%.

What about the viability, T/C (second compound 0.03 µM, first compound 0.000316 µM) of the same compound?
The viability, T/C was 104%.

What about the viability, T/C (second compound 0.03 µM, first compound 0.001 µM) of the same compound?
The viability, T/C was 98.2%.

And the viability, T/C (second compound 0.03 µM, first compound 0.00316 µM)?
The viability, T/C was 87.5%.

What about the viability, T/C (second compound 0.03 µM, first compound 0.01 µM) of the same compound?
Its viability, T/C is 22.8%.

And the viability, T/C (second compound 0.03 µM, first compound 0.0316 µM)?
Its viability, T/C is 6.44%.

And the viability, T/C (second compound 0.03 µM, first compound 0.1 µM)?
The viability, T/C was 4.46%.

And the viability, T/C (second compound 0.0949 µM, first compound 0.000316 µM)?
The viability, T/C was 90.8%.

What about the viability, T/C (second compound 0.0949 µM, first compound 0.001 µM) of the same compound?
Its viability, T/C is 66.6%.

What about the viability, T/C (second compound 0.0949 µM, first compound 0.00316 µM) of the same compound?
The viability, T/C was 23.7%.

And the viability, T/C (second compound 0.0949 µM, first compound 0.01 µM)?
Its viability, T/C is 7.28%.

And the viability, T/C (second compound 0.0949 µM, first compound 0.0316 µM)?
Its viability, T/C is 6.03%.

What about the viability, T/C (second compound 0.0949 µM, first compound 0.1 µM) of the same compound?
Its viability, T/C is 3.35%.

What about the viability, T/C (second compound 0.3 µM, first compound 0.000316 µM) of the same compound?
The viability, T/C was 15.8%.

And the viability, T/C (second compound 0.3 µM, first compound 0.001 µM)?
The viability, T/C was 9.59%.

What about the viability, T/C (second compound 0.3 µM, first compound 0.00316 µM) of the same compound?
The viability, T/C was 5.54%.

What about the viability, T/C (second compound 0.3 µM, first compound 0.01 µM) of the same compound?
Its viability, T/C is 4.13%.

And the viability, T/C (second compound 0.3 µM, first compound 0.0316 µM)?
Its viability, T/C is 2.99%.

What about the viability, T/C (second compound 0.3 µM, first compound 0.1 µM) of the same compound?
The viability, T/C was 2.63%.

And the viability, T/C (second compound 0.949 µM, first compound 0.000316 µM)?
Its viability, T/C is 3.8%.

And the viability, T/C (second compound 0.949 µM, first compound 0.001 µM)?
Its viability, T/C is 2.11%.

What about the viability, T/C (second compound 0.949 µM, first compound 0.00316 µM) of the same compound?
The viability, T/C was 2.99%.

What about the viability, T/C (second compound 0.949 µM, first compound 0.01 µM) of the same compound?
The viability, T/C was 1.27%.

And the viability, T/C (second compound 0.949 µM, first compound 0.0316 µM)?
The viability, T/C was 1.77%.

What about the viability, T/C (second compound 0.949 µM, first compound 0.1 µM) of the same compound?
Its viability, T/C is 1.2%.

And the viability, T/C (second compound 3 µM, first compound 0.000316 µM)?
The viability, T/C was 10.9%.

What about the viability, T/C (second compound 3 µM, first compound 0.001 µM) of the same compound?
The viability, T/C was 1.49%.

What about the viability, T/C (second compound 3 µM, first compound 0.00316 µM) of the same compound?
Its viability, T/C is 2.04%.

And the viability, T/C (second compound 3 µM, first compound 0.01 µM)?
Its viability, T/C is 1.73%.

And the viability, T/C (second compound 3 µM, first compound 0.0316 µM)?
The viability, T/C was 1.53%.

What about the viability, T/C (second compound 3 µM, first compound 0.1 µM) of the same compound?
The viability, T/C was 1.16%.
